pIC50: −log10 of the molar value. Read-outs that look alike come from different tables or passages of the source.
Key:
Type in all cases: biochemical
[1] = target: T1, human JAK2 (a.a. 828-1132) (Homo sapiens, UniProt O60674); assay: In vitro JAK kinase assay (HTRF, phosphorylation of a biotinylated peptide), JAK2
T1 construct: JAK2 (a.a. 828-1132); His tag (N); made in house; host or cells: insect cells (baculovirus)
Procedure, shortened: (§1)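 Phosphorylation of a biotinylated peptide by the JAK kinase domain, detected by HTRF with Eu-Py20 and SA-APC. ATP was 90 μM for JAK1, 30 μM for JAK2 and 3 μM for JAK3. Reactions ran 1 h at room temperature and were stopped with EDTA, followed by 40 min antibody binding.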

[2] = target: T2, human JAK1 (a.a. 837-1142) (Homo sapiens, UniProt P23458); assay: In vitro JAK kinase assay (HTRF, phosphorylation of a biotinylated peptide), JAK1; details: read-out: JAK1 IC50
T2 construct: human JAK1 (a.a. 837-1142); His tag (N); made in house; host or cells: insect cells (baculovirus)
Procedure, shortened: as §1

[3] = target: T3, Recombinant Human Anaplastic Lymphoma Kinase (Homo sapiens, UniProt Q9UM73); assay: ALK HTRF kinase assay; details: compound at 500 nM or 1 mM; 90 μM ATP
T3 construct: purchased Invitrogen, Carlsbad, Calif
From the text: Materials: Recombinant Human Anaplastic Lymphoma Kinase was purchased from Invitrogen, Carlsbad, Calif. Peptide substrate (Biotin-[…]-amide) was custom synthesized at EZBiolab, Westfield, Ind. Streptavidin conjugated SureLight-Allophycocyania and LANCE Eu-W1024 labeled anti-phosphotyrosine antibody were from Perkin-Elmer, Boston, Mass. Microplates were from Corning Inc., Acton, Mass. All other reagents were from Sigma, St. Louis, Mo.
Plates were read in Fusion α-FP instrument (Perkin-Elmer). […] Signal=Bottom+(Top−Bottom)/(1+10^((Log(IC50)−Log [I])*Hill Slope) Bottom and Top refer to the post and pre-transition baselines, respectively.

TYK2 = TYK2 (Homo sapiens, UniProt P29597); assay: TYK2 kinase inhibition (Table A1); details: Table D1
[4] = target: T4, human JAK3 (a.a. 781-1124) (Homo sapiens, UniProt P52333); assay: In vitro JAK kinase assay (HTRF, phosphorylation of a biotinylated peptide), JAK3; details: Table D1
T4 construct: JAK3 (a.a. 781-1124); His tag (N); made in house; host or cells: insect cells (baculovirus)
Procedure, shortened: as §1

[5] = method AA1 (90 μM ATP) or AA2 (1000 μM ATP), not stated per value

T2 sequence (P23458 849-1154): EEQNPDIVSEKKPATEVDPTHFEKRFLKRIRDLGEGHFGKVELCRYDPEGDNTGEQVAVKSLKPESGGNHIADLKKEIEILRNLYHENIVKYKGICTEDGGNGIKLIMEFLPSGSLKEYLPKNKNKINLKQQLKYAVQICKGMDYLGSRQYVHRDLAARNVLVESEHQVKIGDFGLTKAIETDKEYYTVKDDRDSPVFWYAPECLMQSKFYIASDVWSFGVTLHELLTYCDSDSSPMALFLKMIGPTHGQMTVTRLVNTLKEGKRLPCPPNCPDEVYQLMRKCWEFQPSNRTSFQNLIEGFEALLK
T4 sequence (P52333 781-1124): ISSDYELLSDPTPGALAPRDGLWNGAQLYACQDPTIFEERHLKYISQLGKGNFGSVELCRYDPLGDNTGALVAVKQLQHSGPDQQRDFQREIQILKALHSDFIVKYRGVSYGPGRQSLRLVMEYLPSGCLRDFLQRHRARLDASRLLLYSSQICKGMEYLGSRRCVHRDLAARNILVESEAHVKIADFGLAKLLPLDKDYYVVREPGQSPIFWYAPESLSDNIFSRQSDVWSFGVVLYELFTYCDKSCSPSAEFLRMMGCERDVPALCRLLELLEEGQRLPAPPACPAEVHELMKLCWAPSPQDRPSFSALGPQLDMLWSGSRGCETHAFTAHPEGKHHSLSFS
T1 sequence (O60674 828-1132): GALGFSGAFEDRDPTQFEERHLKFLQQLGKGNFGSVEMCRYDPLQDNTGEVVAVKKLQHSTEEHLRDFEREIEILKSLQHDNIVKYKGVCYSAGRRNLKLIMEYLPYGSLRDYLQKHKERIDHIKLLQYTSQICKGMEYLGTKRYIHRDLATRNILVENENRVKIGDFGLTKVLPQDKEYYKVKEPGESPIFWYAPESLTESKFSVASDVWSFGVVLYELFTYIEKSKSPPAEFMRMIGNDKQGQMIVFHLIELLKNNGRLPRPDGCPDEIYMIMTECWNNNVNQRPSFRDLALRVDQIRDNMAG
Sequence of TYK2 (P29597 whole entry): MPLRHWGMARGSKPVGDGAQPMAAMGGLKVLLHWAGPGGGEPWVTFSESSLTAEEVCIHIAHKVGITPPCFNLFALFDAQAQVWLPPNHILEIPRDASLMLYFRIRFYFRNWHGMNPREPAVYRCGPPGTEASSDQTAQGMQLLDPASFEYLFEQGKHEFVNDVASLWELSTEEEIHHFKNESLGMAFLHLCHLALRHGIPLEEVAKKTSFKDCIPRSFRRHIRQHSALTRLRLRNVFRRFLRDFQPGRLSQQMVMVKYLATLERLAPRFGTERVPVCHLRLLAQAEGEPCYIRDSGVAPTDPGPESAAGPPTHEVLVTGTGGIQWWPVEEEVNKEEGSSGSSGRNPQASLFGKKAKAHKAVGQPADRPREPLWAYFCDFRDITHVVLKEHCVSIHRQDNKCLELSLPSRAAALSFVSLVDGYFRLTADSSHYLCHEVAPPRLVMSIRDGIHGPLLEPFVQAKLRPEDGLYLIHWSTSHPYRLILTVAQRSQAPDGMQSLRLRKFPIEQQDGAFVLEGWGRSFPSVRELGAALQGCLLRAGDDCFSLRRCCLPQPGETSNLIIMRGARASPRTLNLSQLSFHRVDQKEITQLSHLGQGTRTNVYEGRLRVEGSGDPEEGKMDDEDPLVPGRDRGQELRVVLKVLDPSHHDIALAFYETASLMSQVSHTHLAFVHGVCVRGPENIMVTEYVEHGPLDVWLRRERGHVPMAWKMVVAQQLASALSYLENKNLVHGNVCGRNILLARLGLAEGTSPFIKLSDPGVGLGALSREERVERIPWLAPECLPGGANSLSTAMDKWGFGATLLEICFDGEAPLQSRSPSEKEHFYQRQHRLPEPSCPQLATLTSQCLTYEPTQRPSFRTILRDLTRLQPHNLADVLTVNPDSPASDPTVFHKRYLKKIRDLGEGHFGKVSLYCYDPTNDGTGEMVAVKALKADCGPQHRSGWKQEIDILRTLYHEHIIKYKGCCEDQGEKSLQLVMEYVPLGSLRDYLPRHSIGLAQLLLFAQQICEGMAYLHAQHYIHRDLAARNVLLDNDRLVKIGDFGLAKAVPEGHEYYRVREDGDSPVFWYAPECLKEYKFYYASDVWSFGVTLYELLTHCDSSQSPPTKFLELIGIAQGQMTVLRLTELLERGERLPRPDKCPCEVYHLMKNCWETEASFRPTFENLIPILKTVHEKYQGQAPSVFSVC
T3 sequence (Q9UM73 19-1620): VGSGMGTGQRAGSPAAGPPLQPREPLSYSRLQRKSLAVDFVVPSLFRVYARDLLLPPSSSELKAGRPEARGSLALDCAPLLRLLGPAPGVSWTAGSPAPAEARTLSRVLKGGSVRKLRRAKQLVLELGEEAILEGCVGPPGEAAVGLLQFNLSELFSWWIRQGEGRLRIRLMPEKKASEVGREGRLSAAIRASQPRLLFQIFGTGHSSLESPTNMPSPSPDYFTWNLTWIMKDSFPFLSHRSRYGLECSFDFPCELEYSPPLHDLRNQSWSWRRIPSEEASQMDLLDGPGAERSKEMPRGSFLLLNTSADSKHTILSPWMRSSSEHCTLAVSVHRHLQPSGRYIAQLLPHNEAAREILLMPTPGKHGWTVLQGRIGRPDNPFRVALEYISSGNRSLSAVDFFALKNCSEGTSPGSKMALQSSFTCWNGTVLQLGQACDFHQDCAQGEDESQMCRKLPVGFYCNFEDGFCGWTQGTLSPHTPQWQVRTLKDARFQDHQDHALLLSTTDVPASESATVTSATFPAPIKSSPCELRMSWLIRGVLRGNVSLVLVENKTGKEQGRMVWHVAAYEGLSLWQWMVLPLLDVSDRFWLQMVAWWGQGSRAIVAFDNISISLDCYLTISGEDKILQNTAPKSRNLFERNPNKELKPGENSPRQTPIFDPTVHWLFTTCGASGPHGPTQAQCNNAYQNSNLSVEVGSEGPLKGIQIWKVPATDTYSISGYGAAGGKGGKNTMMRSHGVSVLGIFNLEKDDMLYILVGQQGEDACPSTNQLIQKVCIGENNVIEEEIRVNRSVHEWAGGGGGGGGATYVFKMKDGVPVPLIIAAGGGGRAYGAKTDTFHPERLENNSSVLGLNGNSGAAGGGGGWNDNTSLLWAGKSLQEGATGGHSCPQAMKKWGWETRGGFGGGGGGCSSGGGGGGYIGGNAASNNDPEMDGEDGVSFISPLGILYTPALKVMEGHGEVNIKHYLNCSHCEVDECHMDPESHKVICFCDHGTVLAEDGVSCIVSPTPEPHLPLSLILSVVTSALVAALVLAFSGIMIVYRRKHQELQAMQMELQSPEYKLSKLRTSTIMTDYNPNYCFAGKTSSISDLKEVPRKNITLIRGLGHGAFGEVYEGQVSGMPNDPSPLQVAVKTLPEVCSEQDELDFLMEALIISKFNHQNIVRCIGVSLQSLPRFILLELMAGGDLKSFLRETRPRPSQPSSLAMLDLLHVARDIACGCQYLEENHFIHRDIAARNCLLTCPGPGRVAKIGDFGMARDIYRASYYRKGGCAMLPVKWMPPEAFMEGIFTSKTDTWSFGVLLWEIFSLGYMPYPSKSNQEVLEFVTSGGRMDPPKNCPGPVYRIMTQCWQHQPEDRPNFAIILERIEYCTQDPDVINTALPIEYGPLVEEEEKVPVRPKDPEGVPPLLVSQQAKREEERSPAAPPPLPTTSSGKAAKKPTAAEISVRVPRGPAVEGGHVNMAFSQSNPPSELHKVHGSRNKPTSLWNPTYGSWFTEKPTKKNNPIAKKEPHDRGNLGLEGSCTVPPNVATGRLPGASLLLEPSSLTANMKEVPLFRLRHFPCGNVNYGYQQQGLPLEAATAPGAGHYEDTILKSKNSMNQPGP

Row | pIC50 ([1]; method AA1 (30 μM ATP) or AA2 (1000 μM ATP), not stated per value) | pIC50 [2, 5] | ALK % of inhibition at a concentration of 500 nM or 1 mM [3] [%] | pIC50 ([1]; Table D1) | pIC50 (TYK2) | pIC50 ([2]; Table D1) | pIC50 [4] | SMILES
1 | 7.06 | 8.44 | 24 |  |  |  |  | O=C(CC1CCN(c2nccs2)CC1)Nc1ccc2cc1CCc1cncc(c1)Nc1ncc(Cl)c(n1)N2 [Example A159, N-[6-Chloro-2,4,8,18,22-pentaazatetracyclo[14.3.1.1(3,7).1(9,13)]docosa-1(20),3(22),4,6,9(21),10,12,16,18-nonaen-12-yl]-2-[1-(1,3-thiazol-2-yl)piperidin-4-yl]acetamide tris(trifluoroacetate)]
2 |  | 7.66 | 27 |  |  |  |  | O=C(CC1CCN(C(=O)c2ccns2)CC1)Nc1ccc2cc1CCc1cncc(c1)Nc1ncc(Cl)c(n1)N2 [Example A168, N-[6-Chloro-2,4,8,18,22-pentaazatetracyclo[14.3.1.1(3,7).1(9,13)]docosa-1(20),3(22),4,6,9(21),10,12,16,18-nonaen-12-yl]-2-[1-(isothiazol-5-ylcarbonyl)piperidin-4-yl]acetamide bis(trifluoroacetate)]
3 |  |  |  | 6.95 | < 6.40 | 7.15 | < 6.40 | O=C(COc1ccc2cc1CCc1cncc(c1)Nc1ncc(Cl)c(n1)N2)N1CCC(c2nc(-c3cccs3)no2)CC1 [Example D258, 6-Chloro-12-(2-oxo-2-{4-[3-(2-thienyl)-1,2,4-oxadiazol-5-yl]piperidin-1-yl}ethoxy)-2,4,8,18,22-pentaazatetracyclo[14.3.1.1(3,7).1(9,13)]docosa-1(20),3(22),4,6,9(21),10,12,16,18-nonaene bis(trifluoroacetate)]
4 |  |  |  | 7.43 | < 6.40 | 7.38 | < 6.40 | O=C(COc1ccc2cc1CCc1cncc(c1)Nc1ncc(Cl)c(n1)N2)N1CCN(C(=O)c2ccc(F)cc2F)CC1 [Example D259, 6-Chloro-12-{2-[4-(2,4-difluorobenzoyl)piperazin-1-yl]-2-oxoethoxy}-2,4,8,18,22-pentaazatetracyclo[14.3.1.1(3,7).1(9,13)]docosa-1(20),3(22),4,6,9(21),10,12,16,18-nonaene bis(trifluoroacetate)]
5 |  |  |  | 7.66 | 6.54 | 7.82 | < 6.40 | O=C(COc1ccc2cc1CCc1cncc(c1)Nc1ncc(Cl)c(n1)N2)N1CCN(C(=O)c2ccno2)CC1 [Example D260, 6-Chloro-12-{2-[4-(isoxazol-5-ylcarbonyl)piperazin-1-yl]-2-oxoethoxy}-2,4,8,18,22-pentaazatetracyclo[14.3.1.1(3,7).1(9,13)]docosa-1(20),3(22),4,6,9(21),10,12,16,18-nonaene bis(trifluoroacetate)]
6 |  |  |  | 6.97 | < 6.40 | 7.51 | < 6.40 | COC(=O)N1CCN(C(=O)COc2ccc3cc2CCc2cncc(c2)Nc2ncc(Cl)c(n2)N3)CC1 [Example D261, Methyl 4-({[6-chloro-2,4,8,18,22-pentaazatetracyclo[14.3.1.1(3,7).1(9,13)]docosa-1(20),3(22),4,6,9(21),10,12,16,18-nonaen-12-yl]oxy}acetyl)piperazine-1-carboxylate bis(trifluoroacetate)]
7 |  |  |  | < 6.40 | < 6.40 | 6.82 | < 6.40 | COCC(=O)N1CCN(C(=O)COc2ccc3cc2CCc2cncc(c2)Nc2ncc(Cl)c(n2)N3)CC1 [Example D262, 6-Chloro-12-{2-[4-(methoxyacetyl)piperazin-1-yl]-2-oxoethoxy}-2,4,8,18,22-pentaazatetracyclo[14.3.1.1(3,7).1(9,13)]docosa-1(20),3(22),4,6,9(21),10,12,16,18-nonaene bis(trifluoroacetate)]
8 |  |  |  | 6.74 | < 6.40 | 7.10 | < 6.40 | CCS(=O)(=O)N1CCN(C(=O)COc2ccc3cc2CCc2cncc(c2)Nc2ncc(Cl)c(n2)N3)CC1 [Example D263, 6-Chloro-12-{2-[4-(ethylsulfonyl)piperazin-1-yl]-2-oxoethoxy}-2,4,8,18,22-pentaazatetracyclo[14.3.1.1(3,7).1(9,13)]docosa-1(20),3(22),4,6,9(21),10,12,16,18-nonaene bis(trifluoroacetate)]
9 |  |  |  | 7.66 | 6.52 | 8.21 | < 6.40 | O=C(COc1ccc2cc1CCc1cncc(c1)Nc1ncc(Cl)c(n1)N2)N1CCN(C(=O)Nc2ccccc2)CC1 [Example D264, 4-({[6-Chloro-2,4,8,18,22-pentaazatetracyclo[14.3.1.1(3,7).1(9,13)]docosa-1(20),3(22),4,6,9(21),10,12,16,18-nonaen-12-yl]oxy}acetyl)-N-phenylpiperazine-1-carboxamide bis(trifluoroacetate)]
10 |  |  |  | 6.63 | < 6.40 | 7.47 | < 6.40 | CNC(=O)N1CCN(C(=O)COc2ccc3cc2CCc2cncc(c2)Nc2ncc(Cl)c(n2)N3)CC1 [Example D265, 4-({[6-Chloro-2,4,8,18,22-pentaazatetracyclo[14.3.1.1(3,7).1(9,13)]docosa-1(20),3(22),4,6,9(21),10,12,16,18-nonaen-12-yl]oxy}acetyl)-N-methylpiperazine-1-carboxamide bis(trifluoroacetate)]
11 |  |  |  | 7.68 | < 6.40 | 7.51 | < 6.40 | Cc1cc(C(=O)N2CCN(C(=O)COc3ccc4cc3CCc3cncc(c3)Nc3ncc(Cl)c(n3)N4)CC2)n[nH]1 [Example D266, 6-Chloro-12-(2-{4-[(5-methyl-1H-pyrazol-3-yl)carbonyl]piperazin-1-yl}-2-oxoethoxy)-2,4,8,18,22-pentaazatetracyclo[14.3.1.1(3,7).1(9,13)]docosa-1(20),3(22),4,6,9(21),10,12,16,18-nonaene tris(trifluoroacetate)]
12 |  |  |  | 6.52 | < 6.40 | 7.08 | < 6.40 | N#CC1(C(=O)N2CCN(C(=O)COc3ccc4cc3CCc3cncc(c3)Nc3ncc(Cl)c(n3)N4)CC2)CC1 [Example D267, 1-{[4-({[6-Chloro-2,4,8,18,22-pentaazatetracyclo[14.3.1.1(3,7).1(9,13)]docosa-1(20),3(22),4,6,9(21),10,12,16,18-nonaen-12-yl]oxy}acetyl)piperazin-1-yl]carbonyl}cyclopropanecarbonitrile bis(trifluoroacetate)]
13 |  |  |  | 7.44 | 7.31 | 7.82 | < 6.40 | NS(=O)(=O)N1CCN(C(=O)COc2ccc3cc2CCc2cncc(c2)Nc2ncc(Cl)c(n2)N3)CC1 [Example D268, 4-({[6-Chloro-2,4,8,18,22-pentaazatetracyclo[14.3.1.1(3,7).1(9,13)]docosa-1(20),3(22),4,6,9(21),10,12,16,18-nonaen-12-yl]oxy}acetyl)piperazine-1-sulfonamide bis(trifluoroacetate)]
14 |  |  |  | 6.65 | < 6.40 | 7.54 | < 6.40 | N#CCC(=O)N1CCN(C(=O)COc2ccc3cc2CCc2cncc(c2)Nc2ncc(Cl)c(n2)N3)CC1 [Example D269, 3-[4-({[6-Chloro-2,4,8,18,22-pentaazatetracyclo[14.3.1.1(3,7).1(9,13)]docosa-1(20),3(22),4,6,9(21),10,12,16,18-nonaen-12-yl]oxy}acetyl)piperazin-1-yl]-3-oxopropanenitrile bis(trifluoroacetate)]
15 |  |  |  | 7.10 | 6.58 | 7.64 | < 6.40 | NC(=O)N1CCN(C(=O)COc2ccc3cc2CCc2cncc(c2)Nc2ncc(Cl)c(n2)N3)CC1 [Example D270, 4-({[6-Chloro-2,4,8,18,22-pentaazatetracyclo[14.3.1.1(3,7).1(9,13)]docosa-1(20),3(22),4,6,9(21),10,12,16,18-nonaen-12-yl]oxy}acetyl)piperazine-1-carboxamide bis(trifluoroacetate)]
16 |  |  |  | < 6.40 | < 6.40 | 7.12 | < 6.40 | O=C(COc1ccc2cc1CCc1cncc(c1)Nc1ncc(Cl)c(n1)N2)N1CCN(C(=O)C2CCOC2)CC1 (centres unmarked) [Example D271, 6-Chloro-12-{2-oxo-2-[4-(tetrahydrofuran-3-ylcarbonyl)piperazin-1-yl]ethoxy}-2,4,8,18,22-pentaazatetracyclo[14.3.1.1(3,7).1(9,13)]docosa-1(20),3(22),4,6,9(21),10,12,16,18-nonaene bis(trifluoroacetate)]
17 |  |  |  | 6.54 | < 6.40 | 7.42 | < 6.40 | O=C(COc1ccc2cc1CCc1cncc(c1)Nc1ncc(Cl)c(n1)N2)N1CCN(C(=O)C2CCCO2)CC1 (centres unmarked) [Example D272, 6-Chloro-12-{2-oxo-2-[4-(tetrahydrofuran-2-ylcarbonyl)piperazin-1-yl]ethoxy}-2,4,8,18,22-pentaazatetracyclo[14.3.1.1(3,7).1(9,13)]docosa-1(20),3(22),4,6,9(21),10,12,16,18-nonaene bis(trifluoroacetate)]
